# Assay: In vitro whitening test on coffee-stained bovine teeth (ΔW*)
# Details: Example 6, MPS added to 2% hydrogen peroxide mouthwash
# Procedure: The bovine teeth have initial L values of 57-65. The teeth are submerged in deionized water, then removed and soaked for 2 minutes in 20 mL of the test solution. The teeth are then rinsed three times with deionized water. Each such treatment cycle is repeated fourteen times, and after every two cycles values for L*, a* and b* are measured. These figures are used to calculate a whiteness score, W*, which is a measure of overall color change relative to pure white:
# ΔW*=W*(treated)−W*(baseline)
# The resulting instant whitening mouthwash is compared to a comparative 2% hydrogen peroxide whitening mouthwash composition using the procedure described in Example 5.
# The comparative HP mouthwash is compared to the MPS mouthwash and the MPS/HP mouthwash in side-by-side experiments.
structure (smiles),measurement,value
"O=S(=O)([O-])O[O-].[K+].[K+] [MPS, potassium peroxymonosulfate]",whitening effect when added to a hydrogen peroxide mouthwash,significant and unexpected additive whitening effect

# From patent publication US20170172880A1, “Fast Dissolving Peroxymonosulfate Composition” (Colgate-Palmolive Company, priority 2015, published 2017)
